# Target: Cannabinoid receptor 1 (Homo sapiens, UniProt P21554)
# Test: Compound was evaluated for its binding affinity towards Cannabinoid receptor 1 [Inactive form(R) of CB1 receptor]
# Chain of Cannabinoid receptor 1 (P21554 whole entry): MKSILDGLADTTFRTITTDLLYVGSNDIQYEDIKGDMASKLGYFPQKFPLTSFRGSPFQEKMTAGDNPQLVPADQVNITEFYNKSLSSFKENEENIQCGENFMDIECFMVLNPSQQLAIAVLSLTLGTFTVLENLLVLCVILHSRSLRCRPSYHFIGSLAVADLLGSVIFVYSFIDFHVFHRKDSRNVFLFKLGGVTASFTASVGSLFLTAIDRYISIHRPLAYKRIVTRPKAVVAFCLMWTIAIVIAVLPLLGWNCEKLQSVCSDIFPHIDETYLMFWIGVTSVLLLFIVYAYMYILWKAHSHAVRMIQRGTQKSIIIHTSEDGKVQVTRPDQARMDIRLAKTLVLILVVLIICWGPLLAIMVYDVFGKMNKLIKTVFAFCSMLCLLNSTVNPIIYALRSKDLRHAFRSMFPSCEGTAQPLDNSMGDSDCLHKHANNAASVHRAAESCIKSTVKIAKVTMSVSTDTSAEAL
row,SMILES,Ki [nM]
1,CCCCC/C=C\C/C=C\C/C=C\C/C=C\CC[C@H](C)C(=O)N[C@@H](C)CO,389
2,CCCCC/C=C\C/C=C\C/C=C\C/C=C\CC[C@@H](C)C(=O)N[C@H](C)CO,7.42
3,CCCCC/C=C\C/C=C\CCCCCCCCCC(=O)NCCO,> 1500
4,CCCCC/C=C\C/C=C\C/C=C\C/C=C\CC[C@@H](C)C(=O)N[C@@H](C)CO,233
5,CCCCC/C=C\C/C=C\C/C=C\C/C=C\CCCCCC(=O)NCCO,34.4
6,CCCCC/C=C\C/C=C\C/C=C\C/C=C\CC[C@H](C)C(=O)N[C@H](C)CO,185
